Results taken from the NIST ThermoML archive (doi:10.1021/je060271a).

Conditions: 303.16 K, Liquid, Vibrating tube method

CCCC(=O)OCC(COC(=O)CCC)(COC(=O)CCC)COC(=O)CCC [pentaerythritol tetrabutyrate]
Conditions | mass density [kg/m3]
218.9 kPa | 1042.3
232.4 kPa | 1042.3
246.9 kPa | 1042.3
262 kPa | 1042.5
324.9 kPa | 1042.3
472.3 kPa | 1042.4
544.7 kPa | 1042.5
563.5 kPa | 1042.5
587.1 kPa | 1042.5
607.3 kPa | 1042.4
629 kPa | 1042.6
656.4 kPa | 1042.6
678.3 kPa | 1042.6
696.6 kPa | 1042.6
718.1 kPa | 1042.7
737.2 kPa | 1042.6
757 kPa | 1042.6
776.8 kPa | 1042.6
796 kPa | 1042.7
818.2 kPa | 1042.7
836.3 kPa | 1042.7
853.6 kPa | 1042.7
873.1 kPa | 1042.8
890.5 kPa | 1042.7
907.8 kPa | 1042.7
929.5 kPa | 1042.8
947.9 kPa | 1042.7
966.4 kPa | 1042.8
985.3 kPa | 1042.9
1007.9 kPa | 1042.8
1026.6 kPa | 1042.8
1044.5 kPa | 1042.8
1062.2 kPa | 1042.9
1083.2 kPa | 1043
1101 kPa | 1042.8
1119.2 kPa | 1042.9
1141.3 kPa | 1042.9
1160.5 kPa | 1042.9
1180.3 kPa | 1042.9
1203.2 kPa | 1042.8
1223.6 kPa | 1042.8
1243.7 kPa | 1043
1290.1 kPa | 1043
1358.8 kPa | 1043.1
1379.7 kPa | 1043
1401.5 kPa | 1043
1428.1 kPa | 1043.1
1450.3 kPa | 1043.1
1473.3 kPa | 1043.1
1501.7 kPa | 1043.2
1526.2 kPa | 1043.1
1550.9 kPa | 1043.1
1583.5 kPa | 1043.2
1604.5 kPa | 1043.2
1630.2 kPa | 1043.2
1662.3 kPa | 1043.2
1689.4 kPa | 1043.3
1717.5 kPa | 1043.3
1751.5 kPa | 1043.3
1780.2 kPa | 1043.3
1810 kPa | 1043.3
1846.1 kPa | 1043.4
1877 kPa | 1043.3
1908.8 kPa | 1043.5
1942.4 kPa | 1043.5
1983.9 kPa | 1043.5
2011.5 kPa | 1043.6
2053.9 kPa | 1043.4
2086.5 kPa | 1043.6
2109.2 kPa | 1043.5
2134.7 kPa | 1043.5
2155.2 kPa | 1043.4
2176 kPa | 1043.6
2200.7 kPa | 1043.6
2220.8 kPa | 1043.6
2241.1 kPa | 1043.6
2266.1 kPa | 1043.6
2286.5 kPa | 1043.6
2308 kPa | 1043.7
2333 kPa | 1043.7
2354.7 kPa | 1043.7
2376.6 kPa | 1043.7
2398.4 kPa | 1043.7
2422.9 kPa | 1043.8
2443.3 kPa | 1043.9
2464.3 kPa | 1043.6
2488.8 kPa | 1043.8
2509.4 kPa | 1043.8
2530.2 kPa | 1043.8
2554.7 kPa | 1043.7
2576.2 kPa | 1043.9
2597.2 kPa | 1043.9
2618.2 kPa | 1043.9
2643 kPa | 1043.9
2663.8 kPa | 1044
2685.1 kPa | 1043.9
2711.1 kPa | 1044
2732.8 kPa | 1044
2754.8 kPa | 1044
2781 kPa | 1043.9
2802.9 kPa | 1044
2824.7 kPa | 1044
2874.3 kPa | 1044.1
2897.5 kPa | 1044
2943.5 kPa | 1044.1
2971 kPa | 1044.1
2993.1 kPa | 1044.1
3014.9 kPa | 1044.1
3041.8 kPa | 1044.2
3063.6 kPa | 1044.2
3085.8 kPa | 1044.2
3108.7 kPa | 1044.3
3136.3 kPa | 1044.2
3159.3 kPa | 1044.2
3182.9 kPa | 1044.2
3207 kPa | 1044.3
3235.1 kPa | 1044.3
3258.3 kPa | 1044.2
3282.9 kPa | 1044.4
3311.7 kPa | 1044.3
3336.1 kPa | 1044.3
3361.2 kPa | 1044.5
3386.4 kPa | 1044.3
3416 kPa | 1044.5
3440.9 kPa | 1044.4
3466.4 kPa | 1044.4
3492.4 kPa | 1044.4
3523.8 kPa | 1044.5
3549.8 kPa | 1044.5
3576.6 kPa | 1044.5
3603.3 kPa | 1044.5
3635.4 kPa | 1044.6
3661.7 kPa | 1044.6
3688.4 kPa | 1044.7
3710.9 kPa | 1044.6
3733.8 kPa | 1044.6
3756.6 kPa | 1044.6
3784.2 kPa | 1044.7
3807.4 kPa | 1044.6
3831.5 kPa | 1044.7
3857.6 kPa | 1044.7
3881.3 kPa | 1044.7
3909.9 kPa | 1044.8
3931.4 kPa | 1044.7
3952.7 kPa | 1044.7
3974.1 kPa | 1044.8
